# Data as given in patent US9192605B2, “Compositions and methods for treating parkinson's disease” (priority 2009, dated 2015).
# Where two headings read alike, the source gives them in different places.
# What was measured:
# rats = assay: locomotion, exploration and grooming of rats given low-dose haloperidol; format: in vivo, rat
# [1] = for Freezing during “on” score / Motor Fluctuations (presence) score / Motor Fluctuations (severity) score / Rise from Chair score / ADL Speech score / Alternating Movements score / Changing position, i.e. turning in bed score / Dressing score / Dyskinesias (presence) score / Dyskinesias (severity) score / Feeding score / Gait score / Handwriting score / Hygiene score / Postural Tremor score / Rigidity score / Speech score / Swallowing score / Walking score / Rest Tremor score: 40 micrograms haloperidol/day oral, one patient; for Freezing during “on” score / Motor Fluctuations (presence) score / Motor Fluctuations (severity) score / Rise from Chair score: Baseline Time 1 score 0; for ADL Speech score / Alternating Movements score / Changing position, i.e. turning in bed score / Dressing score / Dyskinesias (presence) score / Dyskinesias (severity) score / Feeding score / Gait score / Handwriting score / Hygiene score / Postural Tremor score / Rigidity score / Speech score / Swallowing score / Walking score: Baseline Time 1 score 1; for Rest Tremor score: Baseline Time 1 score 2
# [2] = clinical use as antipsychotic; cited from earlier work
# dopamine D2 receptors = dopamine D2 receptors (Homo sapiens, UniProt P14416); settings: PET with [11C]raclopride, over 24 hours, schizophrenia patients and volunteers; cited from earlier work
# [3] = target: human cloned dopamine D2 receptors (Homo sapiens, UniProt P14416); settings: cited from earlier work
compound,measurement,setting,value
O=C(CCCN1CCC(O)(c2ccc(Cl)cc2)CC1)c1ccc(F)cc1 [haloperidol],behaviour of the animals,"rats; 0.0025 mg/kg/day, 5 days","heightened locomotion, active exploration and good grooming"
same,behaviour of the animals,"rats; 0.005 mg/kg, on days 3-5 or upon stopping the haloperidol",spontaneously increased locomotion and well-being
same,behaviour of the animals,rats; haloperidol 0.03 mg/kg down to 0.0025 mg/kg,heightened locomotion and active exploration
same,Freezing during “on” score,[1]; Score Time 2,0
same,Motor Fluctuations (presence) score,[1]; Score Time 2,0
same,Motor Fluctuations (severity) score,[1]; Score Time 2,0
same,Rise from Chair score,[1]; Score Time 2,0
same,ADL Speech score,[1]; Score Time 2,0
same,Alternating Movements score,[1]; Score Time 2,0
same,"Changing position, i.e. turning in bed score",[1]; Score Time 2,1
same,Dressing score,[1]; Score Time 2,1
same,Dyskinesias (presence) score,[1]; Score Time 2,0
same,Dyskinesias (severity) score,[1]; Score Time 2,0
same,Feeding score,[1]; Score Time 2,1
same,Gait score,[1]; Score Time 2,0
same,Handwriting score,[1]; Score Time 2,1
same,Hygiene score,[1]; Score Time 2,1
same,Postural Tremor score,[1]; Score Time 2,1
same,Rigidity score,[1]; Score Time 2,2
same,Speech score,[1]; Score Time 2,0
same,Swallowing score,[1]; Score Time 2,0
same,Walking score,[1]; Score Time 2,0
same,Rest Tremor score,[1]; Score Time 2,2
same,Freezing during “on” score,[1]; Score Time 3,0
same,Motor Fluctuations (presence) score,[1]; Score Time 3,0
same,Motor Fluctuations (severity) score,[1]; Score Time 3,0
same,Rise from Chair score,[1]; Score Time 3,0
same,ADL Speech score,[1]; Score Time 3,0
same,Alternating Movements score,[1]; Score Time 3,1
same,"Changing position, i.e. turning in bed score",[1]; Score Time 3,1
same,Dressing score,[1]; Score Time 3,1
same,Dyskinesias (presence) score,[1]; Score Time 3,0
same,Dyskinesias (severity) score,[1]; Score Time 3,0
same,Feeding score,[1]; Score Time 3,1
same,Gait score,[1]; Score Time 3,1
same,Handwriting score,[1]; Score Time 3,1
same,Hygiene score,[1]; Score Time 3,1
same,Postural Tremor score,[1]; Score Time 3,1
same,Rigidity score,[1]; Score Time 3,2
same,Speech score,[1]; Score Time 3,0
same,Swallowing score,[1]; Score Time 3,0
same,Walking score,[1]; Score Time 3,0
same,Rest Tremor score,[1]; Score Time 3,2
same,clinical observation: involuntary movements,"[1]; Time 1 or Time 2, apart from resting tremor of right hand present at all times",No involuntary movements noted
same,overall conclusion,"[1]; baseline to Time 1 and 2, most noticeable walking and overall presentation",A slight improvement from baseline to Time 1 and 2 on certain markers
same,clinical observation: rigidity on palpation,"[1]; elbow joint, no rigidity on left, 40 micrograms/day oral",Slight increase in rigidity on palpation of elbow joint on right side
same,"clinical observation: appearance, facial features","[1]; time 1 and 2 vs baseline, 40 micrograms/day oral","appeared brighter, less flat facial features"
Cc1cc2c(s1)Nc1ccccc1N=C2N1CCN(C)CC1 [olanzapine],extrapyramidal signs (EPS) in patients,[2],dose-dependent incidence of extrapyramidal signs
OCCOCCN1CCN(C2=Nc3ccccc3Sc3ccccc32)CC1 [quetiapine],extrapyramidal signs (EPS) in patients,[2],essentially no EPS occurs
same,time course of human striatum D2 occupancy,dopamine D2 receptors,rapidly falls off within 24 hours
[^3H]quetiapine,rate of release from D2 receptors relative to [3H]haloperidol or [3H]chlorpromazine,[3],at least one hundred times faster
